Measured values as given in patent US20070172444A1, “Hair tonics and method of screening the same” (Shiseido Company, Ltd., priority 2000, published 2007).
Blank lines part the entries; values can stand above or below the compound they belong to. Residues, ends and D or L forms follow the SMILES beside them. *: point of attachment. Cbz = O=C(OCc1ccccc1)*; CH2F = FC*

Assays:
[1] = test system: human hair follicles; test: Human hair follicle organ culture (hair extension, retention of hair bulb morphology); assay type: cell-based; conditions: for extension of hair: 7 days
Description: Three antibiotics of penicillin, streptomycin and fungizone were added to the Williams E medium (Gibco), and the medium to which 10 ng/ml hydrocortisone, 10 μg/ml insulin, 10 ng/ml sodium pentaselenate and 10 μg/ml transferrin were further added was made the insulin-containing medium, and the medium to which they were not added was made the basal medium, and were used in a human hair follicle organ culture.
(§1) Using a microtome under a stereoscopic microscope, hair follicles in the growth phase were isolated from a human scalp. The isolated hair follicles were washed in the basal medium followed by the measurement of length, and then immersed in the insulin-containing medium (a 24-well microplate was used; 1 ml per well), and was cultured overnight at 37° C. in an atmospheric condition containing 5% CO2. After measuring the length again, hair follicles of which length extension was 0.25 mm or longer and of which morphology in the growth phase was retained were selected, and were divided in groups of 10 to 12 pieces so that the length extension may become equal. For each group, the medium was changed to one containing test substances, and the culturing was continued under the above gas phase condition.
The extension of hair follicles was determined over time by inserting a micrometer into the eyepiece of an inverted microscope. Photographs of the whole hair follicles and hair bulbs were taken by a camera connected to the inverted microscope.
On the second day of culturing, the medium was changed to one in which TGF-β2 was added to a final concentration of 50 ng/ml, and the culturing was continued for five days while observing the extension of hair follicles and morphological changes. […] Thus, it was estimated that TGF-β2 has an effect of promoting the regression phase.
The method was performed in accordance with the human hair follicle organ culture method. On the second day of culturing, the medium was changed to one in which anti-TGF-β antibody (manufactured by Genzyme) having the effect of neutralizing TGF-β or the control mouse IgG were added to a final concentration of 20 μg/ml or 100 μg/ml, and culturing was continued for 4-7 days while observing the extension and morphological changes of hair follicles.
The medium was changed to one in which fetuin (final concentration: 1, 10, 50 μM) or the control bovine serum albumin (final concentration: 50 μM) was added to the basal medium, and culturing was continued for a further 7 days while observing the extension and morphological changes of hair follicles.
as §1, with “that” for “that the”
The extension of hair follicles was determined with time by inserting a micrometer into the eyepiece of an inverted microscope. Photographs of the whole hair follicles and hair bulbs were taken by a camera connected to the inverted microscope.
Carbobenzoxy-valyl-alanyl-β-methyl-aspar-1-yl-fluoromethane (z-VAD-fmk) is known to inhibit almost all caspases. […] The medium was changed to one in which z-VAD-fmk (final concentration: 1, 10, 100 μM) was dissolved in DMSO or the control DMSO was added to the basal medium, and culturing was continued for further 7 days while observing the extension and morphological changes of hair follicles. […]

[2] = target: T1, TGF-β2 (Homo sapiens, UniProt P61812); test: Determination of PAI-1 in human dermal papilla cells cultured with TGF-β2; assay type: cell-based
T1 construct: host or cells: added to the culture medium of human dermal papilla cells
T1 sequence (P61812 303-414 limits assumed): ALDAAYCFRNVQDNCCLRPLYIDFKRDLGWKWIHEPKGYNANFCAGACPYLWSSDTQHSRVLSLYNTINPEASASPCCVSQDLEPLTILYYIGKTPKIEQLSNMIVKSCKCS
Description: The inhibition of effect of TGF-β2 can be determined as follows. Utilizing the fact that TGF-β2 induces the production of PAI-1, cells (e.g., dermal papilla cells) are cultured in the coexistence of TGF-β2 and the test substance, PAI-1 in the medium is determined, and to determine whether or not PAI-1 was inhibited as compared to the control.
The medium in which 10% bovine fetal serum was added to the DMEM medium to which three antibiotics of penicillin, streptomycin and fungizone had been added was used, and human dermal papilla cells were cultured in a 96-well plate (about 7,500 cells per well). First, dose dependency on TGF-β2 of the increased expression of PAI-1 was examined. At a suitable cell density, the medium was changed to ones containing various concentrations of TGF-β2, and was further cultured for 24 hours. Ten μl of the medium was taken out, and quantitated using a commercially available PAI-1 determination kit (TintElize PAI-1: biopool).
Then, the present inventors investigated, as described below, whether or not TGF-β2 has the effect of inhibiting the enhanced expression of PAI-1. Phyllodulcin was dissolved in DMSO at concentrations of 0.05-50 μg/ml and used. […] At the end of culturing, the survival of cells was also determined by the Alamar Blue method.

[3] = test system: human dermal papilla cells; test: Cell survival by the Alamar Blue method; assay type: cell-based; conditions: after 24 hours culture; 100% in the case of no addition
Description: Then, the present inventors investigated, as described below, whether or not TGF-β2 has the effect of inhibiting the enhanced expression of PAI-1. Phyllodulcin was dissolved in DMSO at concentrations of 0.05-50 μg/ml and used. After culturing for 24 hours in a medium containing 1 ng/ml TGF-β2, 10 μl of the medium was used to determine the amount of PAI-1. At the end of culturing, the survival of cells was also determined by the Alamar Blue method.
This was performed as described below. Thus, after washing twice in a fresh medium, the medium was changed to one containing 1/10 amount of Alamar Blue (Alamar Bioscience), and was incubated at 37° C. (5% CO2) for four hours. After incubation, absorbance at 595 nm and 570 nm was measured by a microplate reader in order to calculate the Alamar Blue reduction rate for each well, which was divided by the Alamar Blue reduction rate for the negative control in which no phyllodulcin samples were added, and the survival of the cells were calculated.

[4] = test system: isolated human hair; test: Extension of isolated human hair; assay type: cell-based; conditions: phyllodulcin added to isolated human hair, vs control
Description: The extension of hair when phyllodulcin was added to the isolated human hair was investigated. The result is as shown in a photograph in FIG. 20.

[5] = test system: precursor caspase-3; test: Detection of precursor and activated caspase-3 in Pam212 cells cultured with TNF α and CHX; assay type: cell-based, mouse; conditions: TNF α and CHX added, incubated six hours, antibody detection
Text: The precursor caspase-3 was detected in almost all cells, whereas activated caspase-3 was not detected.

- amount of PAI-1 ([2]; 1 ng/ml TGF-β2, 24 hours, 100 in the case of no addition, phyllodulcin 0.05-50 μg/ml): 18
Compound: COc1ccc([C@H]2Cc3cccc(O)c3C(=O)O2)cc1O [phyllodulcin]
- hair extension ([1]; 0.6 μg/ml, eighth day of culturing, vs solvent control): significantly promoted
- Alamar Blue reduction rate (%) [3]: 95%
- extension of hair [4]: the hair is extended as compared to the control

Compound: COC(=O)CC(NC(=O)C(C)NC(=O)C(NC(=O)OCc1ccccc1)C(C)C)C(=O)CF (stereo not drawn) [z-VAD-fmk, Carbobenzoxy-valyl-alanyl-β-methyl-aspar-1-yl-fluoromethane] (Cbz-Val-Ala-Asp(OMe)-CH2F; configuration not given here)
- Ratio of hair follicles in which the morphology of the hair bulb portions was retained ([1]; Experiment 2 (day 4), 10 μM, control 12.5%): 37.5% (3/8)
- Ratio of hair follicles in which the morphology of the hair bulb portions was retained ([1]; Experiment 2 (day 6) as printed, 20 μM, control 20%): 60% (6/10)
- extension of hair ([1]; z-VAD-fmk 1, 10, 100 μM, vs control DMSO): significantly extended hair
- activation of the precursor caspase-3 [5]: completely inhibit the activation of the precursor caspase-3

Compound: TGF-β2: transforming growth factor β2
- regression phase-like morphological changes ([1]; TGF-β2 50 ng/ml, sixth day of culturing, vs non-added control): regression phase-like morphological changes were promoted
- expression of PAI-1 ([2]; various concentrations of TGF-β2, 24 hours): an increase in PAI-1 in a dose dependent manner

Compound: fetuin
- extension of hair ([1]; fetuin 1, 10, 50 μM, vs control bovine serum albumin 50 μM): significantly extended hair
